Test results reported in the Deep4Chem optical property database.
Values belong to the compound of their own block, whether it stands above or below them.

Test: solvent given as SMILES

- absorption maximum (in C1CCOC1): 314 nm
- absorption maximum (in CC(C)O): 309 nm
- absorption maximum (in CCCCCC): 314 nm
- absorption maximum (in CO): 309 nm
- absorption maximum (in CS(C)=O): 313 nm
- absorption maximum (in ClCCl): 311 nm
SMILES: Cc1ccc(-n2c(-c3ccc(C(F)(F)F)cc3)nc(-c3ccccc3O)c2-c2ccccc2O)cc1

- absorption maximum (in ClCCl): 509 nm
SMILES: CC(C)[Si](C#Cc1c2ccccc2c(C#C[Si](C(C)C)(C(C)C)C(C)C)c2nc3c4ccccc4c(=O)c4ccccc4c3nc12)(C(C)C)C(C)C

- absorption maximum (in ClC(Cl)Cl): 348 nm
SMILES: CC(C)(C)c1ccc2oc3nc4oc5ccc(-n6c7ccccc7c7ccccc76)cc5c4cc3c2c1

- absorption maximum (in C1CCCCC1): 583.5 nm
- absorption maximum (in CCOC(C)=O): 578 nm
- absorption maximum (in CO): 576.5 nm
SMILES: COc1ccc(C2=C3C=c4c(oc5ccccc45)=[N+]3[B-](F)(F)n3c2cc2c4ccccc4oc23)cc1

- absorption maximum (in ClCCl): 465 nm
SMILES: COCCOCCOCCOCC(COCCOCCOCCOC)Oc1cc(/C=C/c2ccc(C=C(C#N)C#N)cc2)c(OC(COCCOCCOCCOC)COCCOCCOCCOC)cc1/C=C/c1ccc(C=C(C#N)C#N)cc1

- absorption maximum (in C1CCCCC1): 608.5 nm
- absorption maximum (in CCOC(C)=O): 605 nm
SMILES: CC1=[N+]2C(=C(c3cccs3)c3ccc(C)n3[B-]2(F)F)C=C1c1cc2n(c1)[B-](F)(F)[N+]1=CC=CC1=C2c1c(C)cc(C)cc1C

- absorption maximum (in C1COCCO1): 389 nm
SMILES: CC(=O)Nc1ccc(C2=N/C(=C\c3ccc(C#N)cc3)C(=O)O2)cc1

- absorption maximum (in ClCCl): 535 nm
SMILES: COc1ccc(C2=C(C)C3=C(c4c(-c5ccccn5)nc5ccccn45)c4c(C)cc(C)n4[B-](F)(F)[N+]3=C2C)cc1

- absorption maximum (in CCCCCC): 665 nm
SMILES: F[B-]1(F)n2c(ccc2-c2cccs2)C(C(F)(F)F)=C2C=CC(c3cccs3)=[N+]21

- absorption maximum (in ClC(Cl)Cl): 788 nm
SMILES: COc1ccc(C2=c3sc(-c4ccc(OC)cc4)cc3=[N+]3C2=Nc2c(-c4ccc(OC)cc4)c4sc(-c5ccc(OC)cc5)cc4n2[B-]3(F)F)cc1

- absorption maximum (in ClCCl): 361 nm
SMILES: O=C1c2ccccc2C2=Nc3cccc[n+]3[B-](F)(F)N12

- absorption maximum (in ClCCl): 350 nm
- absorption maximum (in O): 338 nm
SMILES: O=Cc1ccc(-c2ccc(O)c(-c3nc4ccccc4s3)c2)s1

- absorption maximum (in CC#N): 377 nm
SMILES: N#C/C(=C\c1ccc(C#N)cc1)c1nc(-c2ccc(Cl)cc2)c(-c2ccccc2)s1

- absorption maximum (in CC#N): 376 nm
SMILES: COc1ccc(-c2csc(/C(C#N)=C/c3ccc(Cl)cc3)n2)cc1

- absorption maximum (in CC#N): 415 nm
SMILES: COC(=O)/C=C/c1sc(-c2ccc(N(C)C)cc2)c(-c2cccnc2)c1N

- absorption maximum (in CC#N): 442 nm
- absorption maximum (in CN(C)C=O): 490 nm
- absorption maximum (in ClCCl): 442 nm
SMILES: CCN(CC)c1ccc(/C=N/c2ccccc2/N=C/c2ccc(N(CC)CC)cc2O)c(O)c1

- absorption maximum (in ClCCl): 468 nm
SMILES: Cc1c(C(=O)c2ccc3c4cccc5cccc(c6cccc2c63)c54)c2ccc3cccc4c5cccc6ccc1c(c65)c2c34

- absorption maximum (in ClCCl): 364 nm
SMILES: CC(C)(C)NC(=O)c1ccc(-c2cc3ccccc3o2)c2ccc3c4ccccc4c4ccccc4c3c12

- absorption maximum (in CC#N): 373 nm
- absorption maximum (in ClCCl): 377 nm
SMILES: COc1cccc(/C=C/C(=O)c2c(O)cc(C)oc2=O)c1

- absorption maximum (in C1COCCO1): 390 nm
SMILES: COc1ccc(C2=N/C(=C\c3ccccc3)C(=O)N2)cc1OC

- absorption maximum (in ClC(Cl)Cl): 438 nm
SMILES: CN1CCCc2cc(C3=Cc4cccc[n+]4[B-](F)(F)O3)ccc21

- absorption maximum (in C1COCCO1): 415 nm
- absorption maximum (in CC#N): 407 nm
- absorption maximum (in ClCCl): 407 nm
SMILES: Cc1nc2cc(/C=C/c3ccc(N(C)C)cc3)ccc2nc1-c1ccccc1

- absorption maximum (in C1COCCO1): 310 nm
SMILES: CCC1=C(C2=C(C3=C(CC)S(=O)(=O)c4ccccc43)C(F)(F)C(F)(F)C2(F)F)c2ccccc2S1(=O)=O

- absorption maximum (in C1CCOC1): 366 nm
- absorption maximum (in CC#N): 366 nm
- absorption maximum (in CCO): 366 nm
- absorption maximum (in CCOC(C)=O): 366 nm
- absorption maximum (in CN(C)C=O): 358 nm
- absorption maximum (in ClCCl): 370 nm
- absorption maximum (in c1ccccc1): 370 nm
SMILES: COc1ccc([C@@H]2C[C@](O)(c3ccccn3)C[C@](O)(c3ccccn3)[C@H]2C(=O)c2ccc(N(c3ccccc3)c3ccccc3)cc2)cc1

- absorption maximum (in CC#N): 577 nm
- absorption maximum (in CCO): 564 nm
- absorption maximum (in CN(C)C=O): 580 nm
- absorption maximum (in O): 575 nm
SMILES: O=C([O-])c1ccccc1C1=c2cc3c4c(c2Oc2c1cc1c5c2CCCN5CCC1)CCC[N+]=4CCC3

- absorption maximum (in C1COCCO1): 405 nm
SMILES: COc1ccc(C2=N/C(=C\c3ccc(C#N)cc3)C(=O)N2)cc1OC

- absorption maximum (in ClCCl): 536 nm
SMILES: COc1ccc(C2=C3C=C(/C=C/C(=O)OC(C)(C)C)C=[N+]3[B-](F)(F)n3cccc32)cc1

- absorption maximum (in ClCCl): 450 nm
SMILES: COc1ccc(-c2c3ccccc3c(-c3ccc(OC)cc3)c3cc4sc(C)cc4cc23)cc1

Continued, compound first:

SMILES: C=CCOC(=O)C(C#N)=C1C=C(/C=C/c2ccc(N(C)C)cc2)OC(/C=C/c2ccc(N(C)C)cc2)=C1
- absorption maximum (in C1CCOC1): 470 nm
- absorption maximum (in C1COCCO1): 462 nm
- absorption maximum (in CC#N): 476 nm
- absorption maximum (in CN(C)C=O): 486 nm
- absorption maximum (in Cc1ccccc1): 467 nm
- absorption maximum (in ClC(Cl)Cl): 479 nm
- absorption maximum (in ClCCCl): 482 nm
- absorption maximum (in ClCCl): 481 nm

SMILES: c1ccc2c(c1)CCc1ccccc1N2c1c2ccccc2c(N2c3ccccc3CCc3ccccc32)c2ccccc12
- absorption maximum (in Cc1ccccc1): 456 nm

SMILES: CC[N+]1(CC)CN2C(=N1)C(C(=O)O)=Cc1ccc(OC)cc12
- absorption maximum (in O): 372 nm

SMILES: COc1cc2c3sc4ccccc4c3c3cncnc3c2c(OC)c1OC
- absorption maximum (in ClCCl): 376 nm

SMILES: C(#Cc1ccccc1)C(C#Cc1ccccc1)=Cc1ccccc1
- absorption maximum (in ClC(Cl)Cl): 340 nm

SMILES: O=C1Nc2ccccc2/C1=C/C(=O)c1ccc(O)cc1
- absorption maximum (in C1CCCCC1): 333 nm
- absorption maximum (in C1COCCO1): 334 nm
- absorption maximum (in CC#N): 332 nm
- absorption maximum (in CC(C)(C)O): 336 nm
- absorption maximum (in CC(C)O): 338 nm
- absorption maximum (in CCCCCC): 331 nm
- absorption maximum (in CCCCO): 337 nm
- absorption maximum (in CCOC(C)=O): 334 nm
- absorption maximum (in CN(C)C=O): 337 nm
- absorption maximum (in CO): 336 nm
- absorption maximum (in ClCCl): 336 nm
- absorption maximum (in O): 338 nm

SMILES: c1ccc([B-]2(c3ccccc3)Oc3ccc4ccccc4c3-c3c4ccccc4cn[n+]32)cc1
- absorption maximum (in Cc1ccccc1): 436 nm

SMILES: CCC1=C(C)C2=C(C)c3c(I)c(I)c(I)n3[B-](F)(F)[N+]2=C1C
- absorption maximum (in C1CCCCC1): 531.5 nm
- absorption maximum (in CC(C)=O): 517.5 nm
- absorption maximum (in CCO): 522 nm
- absorption maximum (in CCOC(C)=O): 521 nm
- absorption maximum (in CO): 519.5 nm
- absorption maximum (in OCC(F)(F)F): 511.5 nm

SMILES: Cn1c(/C=C/c2ccc(/C=C/c3nc4ccccc4[nH]3)cc2)[n+](C)c2ccccc21
- absorption maximum (in C1CCOC1): 363 nm
- absorption maximum (in CC#N): 377 nm
- absorption maximum (in CC(C)=O): 386 nm
- absorption maximum (in CN(C)C=O): 389 nm
- absorption maximum (in CO): 391 nm
- absorption maximum (in CS(C)=O): 392 nm
- absorption maximum (in O): 376 nm

SMILES: CCCCCCC(CCCCCC)n1c(=O)c2c3ccc4cccc5c6cccc7ccc(c2c1=O)c(c76)c3c45
- absorption maximum (in C1CCCCC1): 335 nm
- absorption maximum (in CC#N): 336 nm
- absorption maximum (in CC(C)=O): 336 nm
- absorption maximum (in CCCCCC): 334 nm
- absorption maximum (in CCO): 336 nm
- absorption maximum (in CCOCC): 335 nm
- absorption maximum (in CS(C)=O): 339 nm
- absorption maximum (in Cc1ccccc1): 339 nm
- absorption maximum (in ClC(Cl)(Cl)Cl): 338 nm
- absorption maximum (in ClC(Cl)Cl): 339 nm

SMILES: c1ccc2c(c1)ccc1c3ccccc3ccc21
- absorption maximum (in ClCCl): 322 nm

SMILES: O=C1C=C(Nc2ccc([N+](=O)[O-])cc2[N+](=O)[O-])C(=O)c2ccccc21
- absorption maximum (in CO): 437 nm

SMILES: CCc1c(C)c2n(c1C)[B-](F)(F)[N+]1=C(C=C3c4ccccc4-c4ccccc43)C=CC1=C2C
- absorption maximum (in C1CCCCC1): 589 nm

SMILES: c1ccc2c(c1)c1ccccc1n2-c1ccc(-c2cc3ccc(-c4ccc5cc(-c6ccc(-n7c8ccccc8c8ccccc87)cc6)oc5c4)cc3o2)cc1
- absorption maximum (in Cc1ccccc1): 365 nm
- absorption maximum (in c1ccc2c(c1)c1ccccc1n2-c1ccc(-c2ccc(-n3c4ccccc4c4ccccc43)cc2)cc1): 376 nm

SMILES: CC(C)(C)c1ccc2c(c1)c1cc(C(C)(C)C)ccc1n2-c1cc(C(=O)c2cccnc2)cc(-n2c3ccc(C(C)(C)C)cc3c3cc(C(C)(C)C)ccc32)c1
- absorption maximum (in Cc1ccccc1): 381 nm

SMILES: CC(C)c1cc(C(C)C)c(B2c3ccccc3Oc3cc(N4c5ccccc5C5(c6ccccc6-c6ccccc65)c5ccccc54)ccc32)c(C(C)C)c1
- absorption maximum (in Cc1ccccc1): 430 nm

SMILES: c1cc2ccc3ccc(-n4c5ccccc5c5ccccc54)c4ccc(c1)c2c34
- absorption maximum (in CCCCCC): 344 nm
- absorption maximum (in CCO): 344 nm
- absorption maximum (in CCOC(C)=O): 344 nm
- absorption maximum (in ClCCl): 347 nm

SMILES: C[Si](C)(C)c1cccc2ccccc12
- absorption maximum (in C1CCCCC1): 294 nm

SMILES: CC(C)(C)c1cccc2c1oc1nc3oc4ccc(-n5c6ccccc6c6ccccc65)cc4c3cc12
- absorption maximum (in ClC(Cl)Cl): 348 nm

SMILES: CN1C(=CC2=C([O-])C(=CC3=[N+](C)c4ccccc4C3(C)C)C2=C2C(=O)NC(=O)NC2=O)C(C)(C)c2ccccc21
- absorption maximum (in ClC(Cl)Cl): 644 nm

SMILES: CC1(C)c2ccccc2N(c2ccccc2)c2ccc(-c3ccc(-c4ccc5c(c4)C(C)(C)c4ccccc4N5c4ccccc4)c4nsnc34)cc21
- absorption maximum (in Cc1ccccc1): 475.42 nm

SMILES: OC1(c2ccc(-c3cccs3)s2)CCCC1
- absorption maximum (in C1CCOC1): 344 nm
- absorption maximum (in CC#N): 343 nm
- absorption maximum (in CCCCCC): 341 nm
- absorption maximum (in CCO): 342 nm
- absorption maximum (in OCCOCCO): 347 nm
- absorption maximum (in c1ccncc1): 348 nm

SMILES: CCCCCCc1ccc2c3c(ccc2c1)O[B-](c1ccccc1)(c1ccccc1)[N+](c1ccc([N+]2=Cc4c(ccc5cc(CCCCCC)ccc45)O[B-]2(c2ccccc2)c2ccccc2)cc1)=C3
- absorption maximum (in C1CCOC1): 455 nm
- absorption maximum (in CC#N): 452 nm
- absorption maximum (in Cc1ccccc1): 462 nm
- absorption maximum (in ClCCl): 459 nm

SMILES: O=c1c2ccccc2n2c3ccccc3c(=O)c3cccc1c32
- absorption maximum (in Cc1ccccc1): 432.96 nm

SMILES: CC(C)(C)c1ccc2oc3nc4oc5cc(-n6c7ccccc7c7ccccc76)ccc5c4cc3c2c1
- absorption maximum (in ClC(Cl)Cl): 347 nm

SMILES: CCCCCCCCC(=O)Oc1cc2[nH]c(cc2CCOC)c2nc(ccc3[nH]c(cc3CCOC)c3nc1C(CCOC)=C3)C(CCOC)=C2
- absorption maximum (in Cc1ccccc1): 647 nm

SMILES: CCOC(=O)CN1C(=O)C2=C(c3ccccc3)N(CC(=O)OCC)C(=O)C2=C1c1ccccc1
- absorption maximum (in CC#N): 454 nm
- absorption maximum (in CS(C)=O): 460 nm
- absorption maximum (in Cc1ccccc1): 462 nm

SMILES: Cc1cc2ccccc2c2[nH]c3ccccc3c12
- absorption maximum (in ClCCl): 300 nm
